Laboratory results taken from patent US20260176320A1, “MODULATORS OF G-PROTEIN COUPLED RECEPTORS” (priority 2018, published 2026).
pEC50: −log10 of the molar value. Like-named read-outs stand apart in the source and are kept apart here. Numbered stars: 1 amine (or outer) side, 2 acyl side, 3 side chain; on linkers, the order of the positions; unused ones are H or OH. Square brackets hold non-standard residues; d marks the D form. Side chains are listed from the residue outwards. Peptide text beside a SMILES is read from it. * marks the point of attachment. X1 = O=C(CSCC(=O)*)NCCN1C(=O)c2ccccc2C1=O; γGlu = O=C(O)[C@H](CCC(=O)[*:2])N[*:1]; X2 = O=C(CSCC(=O)*)NCCN1C(=O)CSC1=O; Palmitoyl = CCCCCCCCCCCCCCCC(=O)*; Aib = CC(C)(N)C(=O)O

Experiments:
GLP-1R = GLP-1R (Homo sapiens, UniProt P43220); assay: HitHunter cAMP assay (GLP-1R); type: cell-based; details: for Emax: read-out: (Emax) GLP-1R
Chain of GLP-1R (P43220 24-463): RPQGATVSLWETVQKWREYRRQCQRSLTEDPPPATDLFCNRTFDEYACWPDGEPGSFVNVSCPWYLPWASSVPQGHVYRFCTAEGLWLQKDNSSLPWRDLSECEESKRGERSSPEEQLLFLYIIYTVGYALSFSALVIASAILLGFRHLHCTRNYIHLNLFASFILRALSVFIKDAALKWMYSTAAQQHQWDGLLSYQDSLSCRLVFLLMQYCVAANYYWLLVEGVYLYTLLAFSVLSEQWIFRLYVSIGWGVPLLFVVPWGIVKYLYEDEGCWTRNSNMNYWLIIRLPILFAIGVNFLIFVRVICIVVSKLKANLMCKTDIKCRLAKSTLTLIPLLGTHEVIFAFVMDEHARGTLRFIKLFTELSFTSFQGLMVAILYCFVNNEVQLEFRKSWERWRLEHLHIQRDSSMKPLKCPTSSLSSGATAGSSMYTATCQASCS
In short: (§1)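 Suspension cells expressing each receptor (10,000 per well) in HBSS with 10 mM HEPES, 625 μM IBMX and 0.2% BSA were treated with a 22-point 2-fold agonist series in duplicate for 30 minutes at room temperature. cAMP was detected by antibody immunocompetition with luminescence read after overnight incubation.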

GIP-R = target: T1, GIP-R (Homo sapiens, UniProt P48546); assay: HitHunter cAMP assay (GIP-R); type: cell-based; details: for Emax: read-out: (Emax) GIP-R
T1 sequence (P48546 22-466): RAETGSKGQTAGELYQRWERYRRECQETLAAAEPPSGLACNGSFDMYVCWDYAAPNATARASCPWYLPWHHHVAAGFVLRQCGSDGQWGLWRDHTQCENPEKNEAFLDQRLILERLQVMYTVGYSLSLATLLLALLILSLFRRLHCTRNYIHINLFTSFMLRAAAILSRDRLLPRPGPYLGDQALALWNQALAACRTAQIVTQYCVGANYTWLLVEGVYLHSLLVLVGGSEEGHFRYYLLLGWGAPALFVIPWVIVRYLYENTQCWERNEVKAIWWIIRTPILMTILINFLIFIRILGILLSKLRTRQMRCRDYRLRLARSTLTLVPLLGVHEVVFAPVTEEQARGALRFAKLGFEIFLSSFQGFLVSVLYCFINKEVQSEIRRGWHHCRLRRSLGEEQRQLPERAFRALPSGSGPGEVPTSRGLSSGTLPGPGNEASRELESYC
In short: as §1

[1] = read-out: EC50 GIP-R/nM, Table 3A, cAMP
[2] = Table 3A, cAMP, read-out: EC50 GLP-1R/nM
[3] = Table 3A, cAMP, read-out: EC50 GIP-R/nM
[4] = read-out: EC50 GLP-1R/nM, Table 3A, cAMP

Compound | EC50 (GLP-1R; EC50 GLP-1R/nM, Table 3, cAMP) [nM] | EC50 (GLP-1R; EC50 GLP-1R/nM, Table 3A, cAMP) [nM] | Emax (GLP-1R; Table 3, cAMP) [%] | Emax (GLP-1R; Table 3A, cAMP) [%] | Emax (GIP-R; Table 3A, cAMP) [%] | EC50 (GIP-R; [1]) [nM] | EC50 (GLP-1R; [2]) [nM] | EC50 (GIP-R; [3]) [nM] | EC50 (GLP-1R; [4]) [nM] | EC50 (GIP-R; EC50 GIP-R/nM, Table 3, cAMP) [nM] | EC50 (GIP-R; EC50 GIP-R/nM, Table 3A, cAMP) [nM] | Emax (GIP-R; Table 3, cAMP) [%] | other results
CC[C@H](C)[C@H](NC(=O)[C@H](CO)NC(=O)[C@H](Cc1ccc(O)cc1)NC(=O)[C@H](CC(=O)O)NC(=O)[C@H](CO)NC(=O)[C@@H](NC(=O)[C@H](Cc1ccccc1)NC(=O)[C@@H](NC(=O)CNC(=O)[C@H](CCC(=O)O)NC(=O)CSCC(=O)NCCN1C(=O)c2ccccc2C1=O)[C@@H](C)O)[C@@H](C)O)C(=O)N[C@@H](Cc1ccc(O)cc1)C(=O)N[C@@H](CC(C)C)C(=O)N[C@@H](CC(=O)O)C(=O)N[C@@H](CCC(=O)O)C(=O)N[C@@H](CCC(N)=O)C(=O)N[C@@H](C)C(=O)N[C@@H](C)C(=O)NC(C)(C)C(=O)N[C@@H](CCC(=O)O)C(=O)N[C@@H](Cc1ccccc1)C(=O)N[C@H](C(=O)N[C@@H](CC(N)=O)C(=O)N[C@@H](Cc1c[nH]c2ccccc12)C(=O)N[C@@H](CC(C)C)C(=O)N[C@@H](CC(C)C)C(=O)N[C@@H](C)C(=O)NCC(=O)NCC(=O)N1CCC[C@H]1C(=O)N[C@@H](CO)C(=O)N[C@@H](CO)C(=O)NCC(=O)N[C@@H](C)C(=O)N1CCC[C@H]1C(=O)N1CCC[C@H]1C(=O)N1CCC[C@H]1C(=O)N[C@@H](CO)C(=O)N[C@@H](CCCCN)C(N)=O)C(C)C [Compound 150] (X1-EGTFTSDYSIYLDEQAA[Aib]EFVNWLLAGGPSSGAPPPSK-NH2) | 1 to 10 | 1 to 10 | 95 to 113 | 95 to 113 | 118 to 130 | < 1 | – | – | – | – | – | – | EC50 (GIP-R; read-out: EC50 GIP-R/nM, Table 3, cAMP): < 1 nM
CC[C@H](C)[C@H](NC(=O)[C@H](CO)NC(=O)[C@H](Cc1ccc(O)cc1)NC(=O)[C@H](CC(=O)O)NC(=O)[C@H](CO)NC(=O)[C@@H](NC(=O)[C@H](Cc1ccccc1)NC(=O)[C@@H](NC(=O)CNC(=O)[C@H](CCC(=O)O)NC(=O)CS(=O)(=O)CC(=O)NCCN1C(=O)CSC1=O)[C@@H](C)O)[C@@H](C)O)C(=O)N[C@@H](Cc1ccc(O)cc1)C(=O)N[C@@H](CC(C)C)C(=O)N[C@@H](CC(=O)O)C(=O)N[C@@H](CCCCN)C(=O)N[C@@H](CCC(N)=O)C(=O)N[C@@H](C)C(=O)N[C@@H](C)C(=O)NC(C)(C)C(=O)N[C@@H](CCC(=O)O)C(=O)N[C@@H](Cc1ccccc1)C(=O)N[C@H](C(=O)N[C@@H](CC(N)=O)C(=O)N[C@@H](Cc1c[nH]c2ccccc12)C(=O)N[C@@H](CC(C)C)C(=O)N[C@@H](CC(C)C)C(=O)N[C@@H](C)C(=O)NCC(=O)NCC(=O)N1CCC[C@H]1C(=O)N[C@@H](CO)C(=O)N[C@@H](CO)C(=O)NCC(=O)N[C@@H](C)C(=O)N1CCC[C@H]1C(=O)N1CCC[C@H]1C(=O)N1CCC[C@H]1C(=O)N[C@@H](CO)C(=O)N[C@@H](CCCCN)C(N)=O)C(C)C [Compound 168] | – | – | 92 | 92 | – | – | 1 to 10 | > 1000 | – | – | – | – | EC50 (GLP-1R; Table 3, cAMP, read-out: EC50 GLP-1R/nM): 1 to 10 nM; EC50 (GIP-R; Table 3, cAMP, read-out: EC50 GIP-R/nM): > 1000 nM; Emax at 1 µM (GIP-R; read-out: (Emax) GIP-R at 1 μM, Table 3, cAMP, at 1 μM): 6 to 14%
CC[C@H](C)[C@H](NC(=O)[C@H](CO)NC(=O)[C@H](Cc1ccc(O)cc1)NC(=O)[C@H](CC(=O)O)NC(=O)[C@H](CO)NC(=O)[C@@H](NC(=O)[C@H](Cc1ccccc1)NC(=O)[C@@H](NC(=O)CNC(=O)[C@H](CCC(=O)O)NC(=O)CSCC(=O)NCCN(C)C(=O)c1ccccc1)[C@@H](C)O)[C@@H](C)O)C(=O)N[C@@H](Cc1ccc(O)cc1)C(=O)N[C@@H](CC(C)C)C(=O)N[C@@H](CC(=O)O)C(=O)N[C@@H](CCCCN)C(=O)N[C@@H](CCC(N)=O)C(=O)N[C@@H](C)C(=O)N[C@@H](C)C(=O)NC(C)(C)C(=O)N[C@@H](CCC(=O)O)C(=O)N[C@@H](Cc1ccccc1)C(=O)N[C@H](C(=O)N[C@@H](CC(N)=O)C(=O)N[C@@H](Cc1c[nH]c2ccccc12)C(=O)N[C@@H](CC(C)C)C(=O)N[C@@H](CC(C)C)C(=O)N[C@@H](C)C(=O)NCC(=O)NCC(=O)N1CCC[C@H]1C(=O)N[C@@H](CO)C(=O)N[C@@H](CO)C(=O)NCC(=O)N[C@@H](C)C(=O)N1CCC[C@H]1C(=O)N1CCC[C@H]1C(=O)N1CCC[C@H]1C(=O)N[C@@H](CO)C(=O)N[C@@H](CCCCN)C(N)=O)C(C)C [Compound 169] | – | – | – | – | – | > 1000 | – | – | 1 to 10 | > 1000 | – | – | pEC50 (GLP-1R): 8.00 to 9.00; Emax (GLP-1R): 96%; Emax at 1 µM (GIP-R; read-out: (Emax) GIP-R at 1 μM): 6 to 8%
CC[C@H](C)[C@H](NC(=O)[C@H](CO)NC(=O)[C@H](Cc1ccc(O)cc1)NC(=O)[C@H](CC(=O)O)NC(=O)[C@H](CO)NC(=O)[C@@H](NC(=O)[C@H](Cc1ccccc1)NC(=O)[C@@H](NC(=O)CNC(=O)[C@H](CCC(=O)O)NC(=O)CCCCCCCCN1C(=O)CSC1=O)[C@@H](C)O)[C@@H](C)O)C(=O)N[C@@H](Cc1ccc(O)cc1)C(=O)N[C@@H](CC(C)C)C(=O)N[C@@H](CC(=O)O)C(=O)N[C@@H](CCCCN)C(=O)N[C@@H](CCC(N)=O)C(=O)N[C@@H](C)C(=O)N[C@@H](C)C(=O)NC(C)(C)C(=O)N[C@@H](CCC(=O)O)C(=O)N[C@@H](Cc1ccccc1)C(=O)N[C@H](C(=O)N[C@@H](CC(N)=O)C(=O)N[C@@H](Cc1c[nH]c2ccccc12)C(=O)N[C@@H](CC(C)C)C(=O)N[C@@H](CC(C)C)C(=O)N[C@@H](C)C(=O)NCC(=O)NCC(=O)N1CCC[C@H]1C(=O)N[C@@H](CO)C(=O)N[C@@H](CO)C(=O)NCC(=O)N[C@@H](C)C(=O)N1CCC[C@H]1C(=O)N1CCC[C@H]1C(=O)N1CCC[C@H]1C(=O)N[C@@H](CO)C(=O)N[C@@H](CCCCN)C(N)=O)C(C)C [Compound 174] | – | – | 17 to 73 | 17 to 73 | 30 to 66 | – | – | – | 10 to 1000 | 100 to 1000 | 100 to 1000 | 30 to 66 | EC50 (GLP-1R; read-out: EC50 GLP-1R/nM, Table 3, cAMP): 10 to 1000 nM
CC[C@H](C)[C@H](NC(=O)[C@H](CO)NC(=O)[C@H](Cc1ccc(O)cc1)NC(=O)[C@H](CC(=O)O)NC(=O)[C@H](CO)NC(=O)[C@@H](NC(=O)[C@H](Cc1ccccc1)NC(=O)[C@@H](NC(=O)CNC(=O)[C@H](CCC(=O)O)NC(=O)CCCCCCCN1C(=O)CSC1=O)[C@@H](C)O)[C@@H](C)O)C(=O)N[C@@H](Cc1ccc(O)cc1)C(=O)N[C@@H](CC(C)C)C(=O)N[C@@H](CC(=O)O)C(=O)N[C@@H](CCCCN)C(=O)N[C@@H](CCC(N)=O)C(=O)N[C@@H](C)C(=O)N[C@@H](C)C(=O)NC(C)(C)C(=O)N[C@@H](CCC(=O)O)C(=O)N[C@@H](Cc1ccccc1)C(=O)N[C@H](C(=O)N[C@@H](CC(N)=O)C(=O)N[C@@H](Cc1c[nH]c2ccccc12)C(=O)N[C@@H](CC(C)C)C(=O)N[C@@H](CC(C)C)C(=O)N[C@@H](C)C(=O)NCC(=O)NCC(=O)N1CCC[C@H]1C(=O)N[C@@H](CO)C(=O)N[C@@H](CO)C(=O)NCC(=O)N[C@@H](C)C(=O)N1CCC[C@H]1C(=O)N1CCC[C@H]1C(=O)N1CCC[C@H]1C(=O)N[C@@H](CO)C(=O)N[C@@H](CCCCN)C(N)=O)C(C)C [Compound 175] | 10 to 100 | 10 to 100 | 87 to 94 | 87 to 94 | 38 | – | – | – | – | 10 to 100 | 10 to 100 | 38 | –
CCCCCCCCCCCCCCCC(=O)N[C@@H](CCC(=O)NCCCC[C@H](NC(=O)[C@@H](NC(=O)[C@H](Cc1ccccc1)NC(=O)[C@H](CCC(=O)O)NC(=O)C(C)(C)NC(=O)[C@H](C)NC(=O)[C@H](C)NC(=O)[C@H](CCC(N)=O)NC(=O)[C@H](CCCCN)NC(=O)[C@H](CC(=O)O)NC(=O)[C@H](CC(C)C)NC(=O)[C@H](Cc1ccc(O)cc1)NC(=O)[C@@H](NC(=O)[C@H](CO)NC(=O)[C@H](Cc1ccc(O)cc1)NC(=O)[C@H](CC(=O)O)NC(=O)[C@H](CO)NC(=O)[C@@H](NC(=O)[C@H](Cc1ccccc1)NC(=O)[C@@H](NC(=O)CNC(=O)[C@H](CCC(=O)O)NC(=O)CSCC(=O)NCCN1C(=O)CSC1=O)[C@@H](C)O)[C@@H](C)O)[C@@H](C)CC)C(C)C)C(=O)N[C@@H](Cc1c[nH]c2ccccc12)C(=O)N[C@@H](CC(C)C)C(=O)N[C@@H](CC(C)C)C(=O)N[C@@H](C)C(=O)NCC(=O)NCC(=O)N1CCC[C@H]1C(=O)N[C@@H](CO)C(=O)N[C@@H](CO)C(=O)NCC(=O)N[C@@H](C)C(=O)N1CCC[C@H]1C(=O)N1CCC[C@H]1C(=O)N1CCC[C@H]1C(=O)N[C@@H](CO)C(=O)N[C@@H](CCCCN)C(N)=O)C(=O)O [Compound 197] (X2-EGTFTSDYSIYLDKQAA[Aib]EFVK([γGlu-Palmitoyl])WLLAGGPSSGAPPPSK-NH2) | – | – | – | 95 | 20 | – | 10 to 100 | 100 to 1000 | – | – | – | – | –
